# According to US7407966B2, “Thienopyridinone compounds and methods of treatment” (Epix Delaware, Inc., priority 2004, dated 2008):
# Target: 5-HT4e receptor (Homo sapiens, UniProt Q13639)
# Experiment: 5-HT4e receptor binding affinity assay
# Settings: binding affinity to 5-HT4e receptors
# Experimental: Compounds of the invention synthesized above and their binding affinity to 5-HT4e receptors was determined.
# Chain of 5-HT4e receptor (Q13639 1-378 isoform Q13639-5): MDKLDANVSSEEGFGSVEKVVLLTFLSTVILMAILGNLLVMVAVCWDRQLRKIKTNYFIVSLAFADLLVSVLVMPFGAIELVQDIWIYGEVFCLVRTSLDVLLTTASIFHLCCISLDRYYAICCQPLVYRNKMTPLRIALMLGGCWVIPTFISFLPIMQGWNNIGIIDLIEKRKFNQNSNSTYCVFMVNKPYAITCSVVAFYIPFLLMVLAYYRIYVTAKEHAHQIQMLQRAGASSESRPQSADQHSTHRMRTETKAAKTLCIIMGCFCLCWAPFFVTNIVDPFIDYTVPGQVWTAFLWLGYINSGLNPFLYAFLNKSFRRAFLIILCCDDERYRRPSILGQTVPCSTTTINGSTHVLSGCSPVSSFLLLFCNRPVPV
row,SMILES,Ki [nM]
1,"CCN1CCC(NC(=O)c2c(O)c3ccsc3n(C(C)C)c2=O)CC1 [Example 1, 6,7-Dihydro-N-(1-ethylpiperidin-4-yl)-4-hydroxy-7-isopropyl-6-oxothieno[2,3-b]pyridine-5-carboxamide]",81
2,"CCCN1CCC(NC(=O)c2c(O)c3ccsc3n(C(C)C)c2=O)CC1 [Example 2, 6,7-Dihydro-4-hydroxy-7-isopropyl-6-oxo-N-(1-propylpiperidin-4-yl)thieno[2,3-b]pyridine-5-carboxamide]",33
3,"CCCCN1CCC(NC(=O)c2c(O)c3ccsc3n(C(C)C)c2=O)CC1 [Example 3, N-(1-Butylpiperidin-4-yl)-6,7-dihydro-4-hydroxy-7-isopropyl-6-oxothieno[2,3-b]pyridine-5-carboxamide]",47
4,"CC(C)n1c(=O)c(C(=O)NC2CCN(CCCO)CC2)c(O)c2ccsc21 [Example 4, 6,7-Dihydro-4-hydroxy-N-(1-(3-hydroxypropyl)piperidin-4-yl)-7-isopropyl-6-oxothieno[2,3-b]pyridine-5-carboxamide]",31
5,"CC(C)n1c(=O)c(C(=O)NC2CCN(CC3CC3)CC2)c(O)c2ccsc21 [Example 5, N-(1-(Cyclopropylmethyl)piperidin-4-yl)-6,7-dihydro-4-hydroxy-7-isopropyl-6-oxothieno[2,3-b]pyridine-5-carboxamide]",62
6,"CC(C)CN1CCC(NC(=O)c2c(O)c3ccsc3n(C(C)C)c2=O)CC1 [Example 6, 6,7-Dihydro-4-hydroxy-N-(1-isobutylpiperidin-4-yl)-7-isopropyl-6-oxothieno[2,3-b]pyridine-5-carboxamide]",220
7,"CC(C)n1c(=O)c(C(=O)NC2CCN(CCc3ccccc3)CC2)c(O)c2ccsc21 [Example 7, 6,7-Dihydro-4-hydroxy-7-isopropyl-6-oxo-N-(1-phenethylpiperidin-4-yl)thieno[2,3-b]pyridine-5-carboxamide]",100
8,"CCCCCN1CCC(NC(=O)c2c(O)c3ccsc3n(C(C)C)c2=O)CC1 [Example 8, 6,7-Dihydro-4-hydroxy-7-isopropyl-6-oxo-N-(1-pentylpiperidin-4-yl)thieno[2,3-b]pyridine-5-carboxamide]",47
9,"CCCN1CCC(NC(=O)c2c(O)c3ccsc3n(CC)c2=O)CC1 [Example 9, 6,7-Dihydro-7-ethyl-4-hydroxy-6-oxo-N-(1-propylpiperidin-4-yl)thieno[2,3-b]pyridine-5-carboxamide]",31
10,"CCn1c(=O)c(C(=O)NC2CCN(CCCO)CC2)c(O)c2ccsc21 [Example 10, 6,7-Dihydro-7-ethyl-4-hydroxy-N-(1-(3-hydroxypropyl)piperidin-4-yl)-6-oxothieno[2,3-b]pyridine-5-carboxamide]",100
